Assay results taken from PubChem BioAssay AID248 (DTP/NCI, 2004).
Where “and” joins values, the source holds several entries; their conditions need not be identical. Equal values may be shown once. Inconclusive results and toxic doses are left out. Rule as the data show it: active = T/C of 150% or more; inactive = T/C below 125%.

System: L1210 leukemia ip in BDF1 mice, survival T/C
Assay: NCI In Vivo Anticancer Drug Screen. Data for tumor model L1210 Leukemia (intraperitoneal) in B6D2F1 (BDF1) mice
Conditions: endpoint: mean survival time, higher = longer survival
In short: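 Survival endpoint. Drug-treated group vs vehicle group, expressed as T divided by C. Tumor passaged by transplantation.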

[1] = dose: 100.0 mg/kg/injection, schedule: Q01DX001 (ip), vehicle: saline
[2] = dose: 200.0 mg/kg/injection, schedule: Q01DX001 (ip), vehicle: saline
[3] = dose: 400.0 mg/kg/injection, schedule: Q01DX001 (ip), vehicle: saline
[4] = dose: 100.0 mg/kg/injection, schedule: Q04DX003 (ip), vehicle: saline with Tween-80
[5] = dose: 200.0 mg/kg/injection, schedule: Q04DX003 (ip), vehicle: saline with Tween-80
[6] = dose: 400.0 mg/kg/injection, schedule: Q04DX003 (ip), vehicle: saline with Tween-80

Measured: T/C

CCCCCCCCCCCC[N+](C)(C)Cc1ccccc1
inactive: dose: 1.56 mg/kg/injection, schedule: Q01DX009 (ip), vehicle: saline 106 % of control | dose: 3.12 mg/kg/injection, schedule: Q01DX009 (ip), vehicle: saline 111 % of control | dose: 3.12 mg/kg/injection, schedule: Q04DX003 (ip), vehicle: saline 98 % of control | dose: 6.25 mg/kg/injection, schedule: Q04DX003 (ip), vehicle: saline 104 % of control | dose: 12.5 mg/kg/injection, schedule: Q01DX001 (ip), vehicle: saline 103 % of control

CC1(C#N)c2ccccc2C=CN1C(=O)c1ccccc1 (stereo not given)
inactive: dose: 100.0 mg/kg/injection, schedule: Q01DX009 (ip), vehicle: Klucel (hydroxypropylcellulose) (HPC) 97 % of control | dose: 200.0 mg/kg/injection, schedule: Q01DX009 (ip), vehicle: Klucel (hydroxypropylcellulose) (HPC) 95 % of control | dose: 400.0 mg/kg/injection, schedule: Q01DX009 (ip), vehicle: Klucel (hydroxypropylcellulose) (HPC) 92 % of control

COc1ccc(-n2c(=O)c(N=Nc3ccc(Br)cc3)c(O)n(-c3ccc(C)cc3)c2=S)cc1
inactive: dose: 50.0 mg/kg/injection, schedule: Q01DX001 (ip), vehicle: Klucel (hydroxypropylcellulose) (HPC) 94 % of control | dose: 100.0 mg/kg/injection, schedule: Q01DX001 (ip), vehicle: Klucel (hydroxypropylcellulose) (HPC) 92 % of control | dose: 200.0 mg/kg/injection, schedule: Q01DX001 (ip), vehicle: Klucel (hydroxypropylcellulose) (HPC) 88 % of control

COCC1CCCCC1O (stereo not given)
inactive: dose: 50.0 mg/kg/injection, schedule: Q01DX001 (ip), vehicle: saline 101 % of control | [1] 95 % of control | [2] 101 % of control | [3] 98 % of control

CC(C)C(CCN1CCCCC1)(CNC1=NCCN1)c1cccc2ccccc12 (stereo not given)
inactive: dose: 3.12 mg/kg/injection, schedule: Q04DX002 (ip), vehicle: Klucel (hydroxypropylcellulose) (HPC) 103 % of control | dose: 5.0 mg/kg/injection, schedule: Q01DX009 (ip), vehicle: Klucel (hydroxypropylcellulose) (HPC) 99 % of control | dose: 6.25 mg/kg/injection, schedule: Q04DX002 (ip), vehicle: Klucel (hydroxypropylcellulose) (HPC) 100 % of control | dose: 10.0 mg/kg/injection, schedule: Q01DX009 (ip), vehicle: Klucel (hydroxypropylcellulose) (HPC) 102 % of control | dose: 12.5 mg/kg/injection, schedule: Q04DX002 (ip), vehicle: Klucel (hydroxypropylcellulose) (HPC) 103 % of control | dose: 12.5 mg/kg/injection, schedule: Q04DX003 (ip), vehicle: Klucel (hydroxypropylcellulose) (HPC) 92 % of control | dose: 20.0 mg/kg/injection, schedule: Q01DX009 (ip), vehicle: Klucel (hydroxypropylcellulose) (HPC) 89 % of control | dose: 25.0 mg/kg/injection, schedule: Q04DX003 (ip), vehicle: Klucel (hydroxypropylcellulose) (HPC) 97 % of control | dose: 50.0 mg/kg/injection, schedule: Q04DX003 (ip), vehicle: Klucel (hydroxypropylcellulose) (HPC) 90 % of control

CN(C)[C@@H]1C(=O)C(C(=O)NCNC(CO)(CO)CO)=C(O)[C@@]2(O)C(=O)C3=C(O)c4c(O)cccc4[C@@](C)(O)[C@H]3C[C@@H]12
inactive: dose: 1.0 mg/kg/injection, schedule: Q01DX Z (ip), vehicle: saline 100 % of control | dose: 4.0 mg/kg/injection, schedule: Q01DX Z (ip), vehicle: saline 100 % of control | dose: 14.0 mg/kg/injection, schedule: Q01DX Z (ip), vehicle: saline 108 % of control | dose: 15.0 mg/kg/injection, schedule: Q01DX Z (ip), vehicle: saline 102 % of control | dose: 25.0 mg/kg/injection, schedule: Q01DX009 (ip), vehicle: saline 104 % of control | dose: 28.0 mg/kg/injection, schedule: Q01DX Z (ip), vehicle: saline 94 % of control | dose: 50.0 mg/kg/injection, schedule: Q01DX009 (ip), vehicle: saline 97 % of control and 101 % of control | dose: 60.0 mg/kg/injection, schedule: Q01DX Z (ip), vehicle: saline 100 % of control | [1] 93 % of control and 95 % of control | dose: 100.0 mg/kg/injection, schedule: Q01DX009 (ip), vehicle: saline 98 % of control and 97 % of control | dose: 100.0 mg/kg/injection, schedule: Q04DX003 (ip), vehicle: acetone 92 % of control | dose: 112.0 mg/kg/injection, schedule: Q01DX Z (ip), vehicle: saline 93 % of control | dose: 120.0 mg/kg/injection, schedule: Q01DX Z (ip), vehicle: saline 113 % of control | [2] 108 % of control and 106 % of control | dose: 200.0 mg/kg/injection, schedule: Q04DX003 (ip), vehicle: acetone 100 % of control and 94 % of control | dose: 224.0 mg/kg/injection, schedule: Q01DX Z (ip), vehicle: saline 115 % of control | dose: 240.0 mg/kg/injection, schedule: Q01DX Z (ip), vehicle: saline 111 % of control | dose: 266.0 mg/kg/injection, schedule: Q01DX009 (ip), vehicle: saline 96 % of control | [3] 104 % of control and 92 % of control | dose: 400.0 mg/kg/injection, schedule: Q04DX003 (ip), vehicle: acetone 91 % of control and 90 % of control

O=C(Cc1ccc(F)cc1)c1ccccc1
inactive: [4] 98 % of control | [5] 98 % of control | [6] 96 % of control

c1ccc(Oc2ccccc2)cc1
inactive: [4] 105 % of control | [5] 101 % of control | [6] 97 % of control
